This passage reports MIC and MBC results from patent US20070276045A1, “Anti-Bacterial Compounds” (priority 2004, published 2007).

In brackets after ≈: the same amount, converted by molar mass.

In assay [1] the test system is C. xerosis DSM 20170. The assay can be described thus: Bacteriostatic activity (MIC), microtiter broth turbidity. The format is cell-based. Particulars: Corynebacterium xerosis, DSM20170; C. xerosis DSM 20170; growth inhibited by at least 80%, 24 h at 36° C.; read-out: MIC (minimal inhibitory concentration). An excerpt: (§1) The bacteriostatic effects of the compounds of the present invention are compared with those of known anti-bacterial agents against human skin bacteria. Typical bacteria (Corynebacterium and Staphylococcus strains) isolated from the human axilla and commercially available strains are used.
(§2) The different axilla bacteria are isolated from the human axilla according to techniques known in the art, in particular according to standard microbiological practice. They are taxonomically identified by cell morphology, gram-reaction and biochemical tests included in the Api coryne test kit (BioMerieux, France). Strain Staphylococcus epidermidis Ax25 is identified by fatty acid methyl ester analysis (FAME; German type strain collection DSMZ, Germany) . […] The strains are maintained on Tryptic soy broth plates, this standard medium being supplemented with 5 g per Litre of Polyoxyethylene Sorbitan Monooleate (Tween™ 80). Plates are incubated at 36° C. for a period of 48 hours. The bacteria are then swabbed from the plates and suspended in 4 ml of Muller-Hinton broth supplemented with 100 mg of Tween™ 80 per Litre (MH-Tween) and incubated again at 36° C. for 16 hours. Following incubation the bacterial suspensions are diluted in MH-Tween to obtain a final cell density of 10^7 colony forming units per ml. These diluted suspensions of the different test organisms are distributed to different columns of a microtiter plate, 100 μl per well. The test compounds are dissolved in dimethylsulfoxide (DMSO) at various test concentrations and 2.5 μl of these different DMSO solutions are added to the different wells of the test plates. The plates are covered with plastic films and incubated for 24 h at 36° C. with shaking at 250 rpm. The turbidity developing in the microtiter platesi then examined after 24 h to determine microbial growth.

For the next assay, the system named is Escherichia coli DSM 682. Described as above. The format is cell-based. Particulars: DSM682; Escherichia coli DSM 682; growth inhibited by at least 80%, 24 h at 36° C.; read-out: MIC (minimal inhibitory concentration).
Excerpt: as §1, §2

Assay [2] relates to S. epidermidis Ax 25. The assay is described as above. The format is cell-based. Particulars: Staphylococcus epidermidis, AX25; S. epidermidis Ax 25; growth inhibited by at least 80%, 24 h at 36° C.; read-out: MIC (minimal inhibitory concentration).
Excerpt: as §1, §2

Assay [3] relates to Staphylococcus aureus DSM 799. The description is as above. Particulars: DSM799; Staphylococcus aureus DSM 799; growth inhibited by at least 80%, 24 h at 36° C.; read-out: MIC (minimal inhibitory concentration). The format is cell-based.
Excerpt: as §1, §2

The test system of assay [4] is Corynebacterium Ax 7. Described as above. The class given is cell-based, Corynebacterium group G. Particulars: AX7; Corynebacterium Ax 7; growth inhibited by at least 80%, 24 h at 36° C.; read-out: MIC (minimal inhibitory concentration).
Excerpt: as §1, §2

The subject of assay [5] is Corynebacterium Ax 15. The assay is described as above. The class given is cell-based, Corynebacterium jeikeium. Particulars: AX15; Corynebacterium Ax 15; growth inhibited by at least 80%, 24 h at 36° C.; read-out: MIC (minimal inhibitory concentration).
Excerpt: as §1, §2

The subject of assay [6] is C. xerosis DSM 20170. As to the kind of experiment: Bactericidal activity (MBC), 60 min contact. Particulars: Corynebacterium xerosis, DSM20170, 1 h, inoculum completely killed after 60 min incubation, read-out: MBC (minimal bactericidal concentration). The class given is cell-based. The source says:
(§3) The different axilla bacteria are isolated from the human axilla according to techniques known in the art, in particular according to standard microbiological practice. They are taxonomically identified by cell morphology, gram-reaction and biochemical tests included in the Api coryne test kit (BioMerieux, France). Strain Staphylococcus epidermidis Ax25 is identified by fatty acid methyl ester analysis (FAME; German type strain collection DSMZ, Germany) . Escherichia coli DSM 682, Staphylococcus aureus DSM 799, and Corynebacterium xerosis DSM 20170 are obtained from the German-type strain collection. The strains are maintained on Tryptic soy broth plates, this standard medium being supplemented with 5 g per Litre of Polyoxyethylene Sorbitan Monooleate (TweenTM 80). Plates are incubated at 36° C. for a period of 48 hours. The bacteria are then swabbed from the plates and suspended in 4 ml of Muller-Hinton broth supplemented with 100 mg of TweenTM 80 per Litre (MH-Tween) and incubated again at 36° C. for 16 hours. Following incubation the bacterial suspensions are diluted in MH-Tween to obtain a final cell density of 10^7 colony forming units per ml. These diluted suspensions of the different test organisms are distributed to different columns of a microtiter plate, 100 μl per well. The test compounds are dissolved in dimethylsulfoxide (DMSO) at various test concentrations and 2.5 μl of these different DMSO solutions are added to the different wells of the test plates. The plates are covered with plastic films and incubated for 24 h at 36° C. with shaking at 250 rpm. The turbidity developing in the microtiter […] examined after 24 h to determine microbial growth. […] The bacteria are grown, harvested and diluted under the same conditions as described in the example above and added to microtiter plates (100 μl per well), each well containing 2.5 μl of the different DMSO solutions as described above. After 60 min incubation, 0.5 μl of the bacterial culture from each well (corresponding to 5×10^3 cfu in the control treatment) is transferred to a fresh microtiter plate which contained 100 μl per well of fresh medium. The plates are covered with plastic films and incubated for 24 h at 36° C. with shaking at 250 rpm. The turbidity developing in the microtiter plates is then examined after 24 h to determine microbial growth. The minimal concentration of test compounds which completely killed the bacterial inoculum is determined as the minimal bactericidal concentration (MBC).

Assay [7] concerns S. epidermidis Ax 25. As to the kind of experiment: Bactericidal activity (MBC), 60 min contact. The class given is cell-based. Particulars: Staphylococcus epidermidis, AX25, 1 h, inoculum completely killed after 60 min incubation, read-out: MBC (minimal bactericidal concentration).
Excerpt: as §3

Assay [8] concerns Corynebacterium Ax 7. As to the kind of experiment: Bactericidal activity (MBC), 60 min contact. The class given is cell-based, Corynebacterium group G. Particulars: AX7, 1 h, inoculum completely killed after 60 min incubation, read-out: MBC (minimal bactericidal concentration).
Excerpt: as §3

Assay [9] has as its system Corynebacterium Ax 15. The assay can be described thus: Bactericidal activity (MBC), 60 min contact. Particulars: AX15, 1 h, inoculum completely killed after 60 min incubation, read-out: MBC (minimal bactericidal concentration). The format is cell-based, Corynebacterium jeikeium.
Excerpt: as §3

Turning to `CCCCCCC(CCCC)COCC(=O)O` (stereo not drawn) [compound 5, (2-Butyl-octyloxy)-acetic acid], the MIC was 80 µg/mL (≈ 327 µM) in the assay on C. xerosis DSM 20170 [1]; greater than 2500 µg/mL with Escherichia coli DSM 682; 160 µg/mL (≈ 655 µM) in the assay with S. epidermidis Ax 25 [2]; 160 µg/mL (≈ 655 µM) in assay [3]; 160 µg/mL (≈ 655 µM) with Corynebacterium Ax 7 [4]; 310 µg/mL (≈ 1270 µM) with Corynebacterium Ax 15 [5]. In addition, the MBC with C. xerosis DSM 20170 [6] is greater than 2500 µg/mL; in the assay on S. epidermidis Ax 25 [7] it was greater than 2000 µg/mL; in the assay on Corynebacterium Ax 7 [8], 1250 µg/mL (≈ 5120 µM); with Corynebacterium Ax 15 [9], greater than 2500 µg/mL.
With `CCCCCCCCC(CCCCCC)COCC(=O)O` (stereo not drawn) [compound 6, (2-Hexyl-decyloxy)-acetic acid], the MIC is 4 µg/mL (≈ 13.3 µM) in the assay with C. xerosis DSM 20170 [1]; greater than 2500 µg/mL in the assay on Escherichia coli DSM 682; 5 µg/mL (≈ 16.6 µM) in the assay with S. epidermidis Ax 25 [2]; 5 µg/mL (≈ 16.6 µM) in assay [3]; 5 µg/mL (≈ 16.6 µM) with Corynebacterium Ax 7 [4]; 5 µg/mL (≈ 16.6 µM) in the assay with Corynebacterium Ax 15 [5]. Further, the MBC came to 40 µg/mL (≈ 133 µM) in the assay with C. xerosis DSM 20170 [6], 20 µg/mL (≈ 66.6 µM) in the assay with S. epidermidis Ax 25 [7], 20 µg/mL (≈ 66.6 µM) in the assay with Corynebacterium Ax 7 [8] and 40 µg/mL (≈ 133 µM) with Corynebacterium Ax 15 [9].
Take `CCCCC(CC)C(=O)OCC(=O)O` (stereo not drawn) [compound 7, 2-Ethyl-hexanoic acid carboxymethyl ester]: the MIC in the assay with C. xerosis DSM 20170 [1] came to 1250 µg/mL (≈ 6180 µM); in the assay on Escherichia coli DSM 682 it was 2500 µg/mL (≈ 12400 µM); in the assay on S. epidermidis Ax 25 [2], 1250 µg/mL (≈ 6180 µM); in assay [3] it was 1250 µg/mL (≈ 6180 µM); with Corynebacterium Ax 7 [4] it was 1250 µg/mL (≈ 6180 µM); in the assay on Corynebacterium Ax 15 [5], 1250 µg/mL (≈ 6180 µM). In addition, the MBC in the assay on C. xerosis DSM 20170 [6], in the assay on S. epidermidis Ax 25 [7], in the assay on Corynebacterium Ax 7 [8] and with Corynebacterium Ax 15 [9] was greater than 2500 µg/mL throughout.
`CCCCCCC(CCCC)C(=O)OCC(=O)O` (stereo not drawn) [compound 8, 2-Butyl-octanoic acid carboxymethyl ester]: the MIC is 80 µg/mL (≈ 310 µM) with C. xerosis DSM 20170 [1]; 2500 µg/mL (≈ 9680 µM) with Escherichia coli DSM 682; 1250 µg/mL (≈ 4840 µM) with S. epidermidis Ax 25 [2]; 80 µg/mL (≈ 310 µM) in [3]; 160 µg/mL (≈ 619 µM) with Corynebacterium Ax 7 [4]; 80 µg/mL (≈ 310 µM) in the assay with Corynebacterium Ax 15 [5]. In addition, the MBC stood at 2500 µg/mL (≈ 9680 µM) in the assay on C. xerosis DSM 20170 [6], 1250 µg/mL (≈ 4840 µM) in the assay with S. epidermidis Ax 25 [7], 1250 µg/mL (≈ 4840 µM) in the assay with Corynebacterium Ax 7 [8] and 2500 µg/mL (≈ 9680 µM) in the assay with Corynebacterium Ax 15 [9].
On to `CCCCCCCCC(CCCCCC)C(=O)OCC(=O)O` (stereo not drawn) [compound 9, 2-Hexyl-decanoic acid carboxymethyl ester], for which the MIC was 7 µg/mL (≈ 22.3 µM) in the assay with C. xerosis DSM 20170 [1]; greater than 2500 µg/mL with Escherichia coli DSM 682; 10 µg/mL (≈ 31.8 µM) in the assay with S. epidermidis Ax 25 [2]; 5 µg/mL (≈ 15.9 µM) in assay [3]; 5 µg/mL (≈ 15.9 µM) with Corynebacterium Ax 7 [4]; 5 µg/mL (≈ 15.9 µM) in the assay on Corynebacterium Ax 15 [5]. The MBC with C. xerosis DSM 20170 [6] amounted to 80 µg/mL (≈ 254 µM); in the assay on S. epidermidis Ax 25 [7] it was 40 µg/mL (≈ 127 µM); in the assay with Corynebacterium Ax 7 [8], 40 µg/mL (≈ 127 µM); in the assay with Corynebacterium Ax 15 [9], 80 µg/mL (≈ 254 µM).
Regarding `CCCCCCC(CCCC)C(=O)NCC(=O)O` (stereo not drawn) [compound 10, (2-Butyl-octanoylamino)-acetic acid], the MIC in the assay on C. xerosis DSM 20170 [1] is 630 µg/mL (≈ 2450 µM); in the assay on Escherichia coli DSM 682 it was 1250 µg/mL (≈ 4860 µM); with S. epidermidis Ax 25 [2], 1250 µg/mL (≈ 4860 µM); in assay [3] it was 1250 µg/mL (≈ 4860 µM); in the assay with Corynebacterium Ax 7 [4] it was 1250 µg/mL (≈ 4860 µM); in the assay on Corynebacterium Ax 15 [5], 1250 µg/mL (≈ 4860 µM). The MBC in the assay with C. xerosis DSM 20170 [6] was 2500 µg/mL (≈ 9710 µM); in the assay with S. epidermidis Ax 25 [7] it was 2500 µg/mL (≈ 9710 µM); in the assay with Corynebacterium Ax 7 [8], 1250 µg/mL (≈ 4860 µM); in the assay on Corynebacterium Ax 15 [9], greater than 2500 µg/mL.
